The test deals with hind limb casted mice. The test can be described thus: Hind limb immobilization (casting) induced skeletal muscle atrophy. The test is classed as in vivo, mouse. Here is the method:
2. […] Casted mice will receive an i.p. injection of saline vehicle (0.3 mL), peptide conjugate, aromatic-cationic peptide, SPN10, or SPN10 with aromatic-cationic peptides. A control group of untreated mice will be also used in this experiment.
Subjects will receive s.c. injections of saline vehicle (0.3 mL) or the peptide conjugate, aromatic-cationic peptide or SPN10 (alone or in combination with aromatic-cationic peptides) (1.5 mg/kg for the peptide conjugate and equivalent molar doses of aromatic-cationic peptide and/or SPN10 based on concentration of the aromatic-cationic peptide or SPN10 administered in the peptide conjugate group) administered once daily during the immobilization period.
Immobilization. Mice will be anesthetized with gaseous isoflurane (3% induction, 0.5-2.5%) maintenance). Anesthetized animals will be cast-immobilized bilaterally with the ankle joint in the plantar-flexed position to induce maximal atrophy of the soleus and plantaris muscle. Both hind limbs and the caudal fourth of the body will be encompassed by a plaster cast. A thin layer of padding will be placed underneath the cast in order to prevent abrasions. In addition, to prevent the animals from chewing on the cast, one strip of fiberglass material will be applied over the plaster. The mice will be monitored on a daily basis for chewed plaster, abrasions, venous occlusion, and problems with ambulation.
Preparation of permeabilized muscle fibers. Permeabilized muscle fibers will be prepared as previously described. Korshunov, et al., FEBS Lett 416:15-18, 1997; Tonkonogi, et al., Pfliigers Arch 446:261-269, 2003. Briefly, the muscle will be trimmed of connective tissue and cut down to fiber bundles (4-8 mg wet wt). Under a microscope and using a pair of extra-sharp forceps, the muscle fibers will be gently separated in ice-cold buffer X containing 60 mM K-MES, 35 mM KCl, 7.23 mM K2EGTA, 2.77 mM CaK2EGTA, 20 mM imidazole, 0.5 mM DTT, 20 mM taurine, 5.7 mM ATP, 15 mM PCr, and 6.56 mM MgCl2·6 H2O (pH 7.1, 295 mosmol/kg H2O) to maximize surface area of the fiber bundle. To permeabilize the myofibers, each fiber bundle will be incubated in ice-cold buffer X containing 50 μg/mL saponin on a rotator for 30 minutes at 4° C. The permeabilized bundles will be washed in ice-cold buffer Z, containing 110 mM K-MES, 35 mM KCl, 1 mM EGTA, 5 mM K2HPO4, and 3 mM MgCl2, 0.005 mM glutamate, and 0.02 mM malate and 0.5 mg/mL BSA, pH 7.1.
Mitochondrial respiration in permeabilized fibers. Respiration will be measured polarographically in a respiration chamber maintained at 37° C. (Hansatech Instruments, United Kingdom). After the respiration chamber will be calibrated, permeabilized fiber bundles will be incubated with 1 mL of respiration buffer Z containing 20 mM creatine to saturate creatine kinase (Saks, et al., Mol. Cell Biochem. 184:81-100, 1998; Walsh, et al., J. Physiol. 537:971-978,2001). Flux through complex I will be measured using 5 mM pyruvate and 2 mM malate. The maximal respiration (state 3), defined as the rate of respiration in the presence of ADP, will be initiated by adding 0.25 mM ADP to the respiration chamber. Basal respiration (state 4) will be determined in the presence of 10 µg/mL oligomycin to inhibit ATP synthesis. The respiratory control ratio (RCR) will be calculated by dividing state 3 by state 4 respiration.
Mitochondrial ROS production. Mitochondrial ROS production will be determined using Amplex™ Red (Molecular Probes, Eugene, OR, U.S.A.). The assay will be performed at 37° C. in 96-well plates using succinate as the substrate. Superoxide dismutase (SOD) will be added at 40 units/mL to convert all superoxide into H2O2. Resorufin formation (Amplex™ Red oxidation by H2O2) will be monitored at an excitation wavelength of 545 nm and an emission wavelength of 590 nm using a multi-well plate reader fluorometer (SpectraMax, Molecular Devices, Sunnyvale, CA, U.S.A.). […]

One compound from patent publication US20240108740A1, “THERAPEUTIC COMPOSITIONS INCLUDING SPN10 AND USES THEREOF” (Stealth BioTherapeutics Inc., priority 2022, published 2024) can be followed below.

Residues, ends and D or L forms follow the SMILES beside them.

With `N=C(N)NCCC[C@H](NC(=O)[C@@H](N)Cc1c[nH]c2ccccc12)C(=O)N[C@@H](Cc1c[nH]c2ccccc12)C(=O)N[C@@H](CCCCN)C(N)=O` [SPN10, H-L-Trp-L-Arg-L-Trp-L-Lys-NH2] (H-WRWK-NH2), where the note is “casting”, the “oxidative damage in soleus muscle, lipid peroxidation via 4-hydroxynonenal (4-HNE)” value is recorded as “overcome” and the “protease activity in the soleus muscle” value was “attenuated or prevented”. Further, the “increase in H2O2 production by mitochondria isolated from soleus muscle” value (casting for 7 days) was “prevented”. In addition, where the note is “hind limb casting for 7 days”, the “decrease in soleus muscle weight and mitochondrial state 3 respiration” value is reported as “reversed”. Further, where the note is “mouse, in vivo”, the “calpain-1, caspase-3 and caspase-12 proteolytic degradation of muscle” value was “prevented”; the “oxidative damage and associated muscle weakness induced by hind limb immobilization” value is recorded as “prevent”.
